Laboratory results: ChEMBL document CHEMBL3588782, “Synthesis, antiribosomal and antibacterial activity of 4-O-glycopyranosyl paromomycin aminoglycoside antibiotics” (Medchemcomm, 2014)
≈ marks a conversion by molar mass, not a printed value.

Assays:
[1] = Inhibition of human ribosome containing eukaryotic ribosomal RNA A-site Cyt14 allele in rabbit reticulocyte lysates assessed as reduction in ribosome-mediated protein synthesis in presence of S-30 extracts by fire fly luciferase synthesis based cell-free translation assay
Staphylococcus aureus [2] = assay: Antibacterial activity against methicillin-resistant Staphylococcus aureus isolate AG 044 by broth microdilution assay; assay type: functional
[3] = Inhibition of human ribosome containing eukaryotic ribosomal RNA A-site A1555G mutant in rabbit reticulocyte lysates assessed as reduction in ribosome-mediated protein synthesis in presence of S-30 extracts by fire fly luciferase synthesis based cell-free translation assay
Staphylococcus aureus [4] = assay: Antibacterial activity against methicillin-resistant Staphylococcus aureus isolate AG 042 by broth microdilution assay; assay type: functional
Ribosome = assay: Inhibition of ribosome-mediated protein synthesis in rabbit reticulocyte lysates in presence of S-30 extracts by fire fly luciferase synthesis based cell-free translation assay; parameters: species or system Oryctolagus cuniculus
[5] = Inhibition of Mycobacterium smegmatis ribosome containing ribosomal RNA A-site G1491A mutant in rabbit reticulocyte lysates assessed as reduction in ribosome-mediated protein synthesis in presence of S-30 extracts by fire fly luciferase synthesis based cell-free translation assay; parameters: species or system Mycolicibacterium smegmatis
Bacterial 70S ribosome = assay: Inhibition of Mycobacterium smegmatis ribosome containing wild type ribosomal RNA A-site in rabbit reticulocyte lysates assessed as reduction in ribosome-mediated protein synthesis in presence of S-30 extracts by fire fly luciferase synthesis based cell-free translation assay; parameters: species or system Mycolicibacterium smegmatis
Escherichia coli [6] = assay: Antibacterial activity against Escherichia coli isolate 001 by broth microdilution assay; assay type: functional
Staphylococcus aureus [7] = assay: Antibacterial activity against methicillin-resistant Staphylococcus aureus isolate AG 039 by broth microdilution assay; assay type: functional
Escherichia coli [8] = assay: Antibacterial activity against Escherichia coli isolate 055 by broth microdilution assay; assay type: functional
[9] = Inhibition of Mycobacterium smegmatis ribosome containing ribosomal RNA A-site A1408G mutant in rabbit reticulocyte lysates assessed as reduction in ribosome-mediated protein synthesis in presence of S-30 extracts by fire fly luciferase synthesis based cell-free translation assay; parameters: species or system Mycolicibacterium smegmatis
Staphylococcus aureus [10] = assay: Antibacterial activity against methicillin-resistant Staphylococcus aureus isolate AG 038 by broth microdilution assay; assay type: functional
Escherichia coli [11] = assay: Antibacterial activity against Escherichia coli isolate 003 by broth microdilution assay; assay type: functional
80S Ribosome = assay: Inhibition of human ribosome containing eukaryotic wild type ribosomal RNA A-site in rabbit reticulocyte lysates assessed as reduction in ribosome-mediated protein synthesis in presence of S-30 extracts by fire fly luciferase synthesis based cell-free translation assay
[12] = Inhibition of Mycobacterium smegmatis ribosome containing ribosomal RNA A-site G1491C mutant in rabbit reticulocyte lysates assessed as reduction in ribosome-mediated protein synthesis in presence of S-30 extracts by fire fly luciferase synthesis based cell-free translation assay; parameters: species or system Mycolicibacterium smegmatis
Escherichia coli [13] = assay: Antibacterial activity against Escherichia coli isolate 006 by broth microdilution assay; assay type: functional

With `NC[C@@H]1O[C@H](O[C@H]2[C@@H](O)[C@H](O[C@@H]3[C@@H](O)[C@H](N)C[C@H](N)[C@H]3O[C@H]3O[C@H](CO)[C@@H](O[C@H]4O[C@H](CO)[C@@H](O)[C@H](O)[C@@H]4O)[C@H](O)[C@H]3N)O[C@@H]2CO)[C@H](N)[C@@H](O)[C@@H]1O` the IC50 [1] was 51.72 µg/mL, the MIC (Staphylococcus aureus [2]) was 32 µg/mL (≈ 41.1 µM) and the IC50 [3] was 18.05 µg/mL. The MIC (Staphylococcus aureus [4]) was > 128 µg/mL, the IC50 (Ribosome) was 36.82 µg/mL and the IC50 [5] was 8.79 µg/mL. For the same compound, the IC50 (Bacterial 70S ribosome) was 373 nM, the MIC (Escherichia coli [6]) was > 128 µg/mL and the MIC (Staphylococcus aureus [7]) was ≥ 128 µg/mL. The MIC (Escherichia coli [8]) was > 128 µg/mL, the IC50 [9] was 5.1 µg/mL and the MIC (Staphylococcus aureus [10]) was 64 µg/mL (≈ 82.3 µM). For the same compound, the MIC (Escherichia coli [11]) was ≥ 128 µg/mL, the IC50 (80S Ribosome) was 2820 nM and the IC50 [12] was 81.32 µg/mL. It also gave an MIC (Escherichia coli [13]) of 16 µg/mL (≈ 20.6 µM).

Work on `CN[C@@H]1[C@@H](O[C@H]2O[C@H](CO)[C@@H](N)[C@H](O)[C@H]2O)O[C@H]2C[C@@H](N)[C@@H](O[C@H]3[C@H](O)[C@@H](O)[C@H](N)C[C@@H]3N)O[C@@H]2[C@@H]1O` [APRAMYCIN] yielded an IC50 [1] of 49.17 µg/mL, an MIC (Staphylococcus aureus [2]) of 16 µg/mL (≈ 29.7 µM) and an IC50 [3] of 26.06 µg/mL. It also gave an MIC (Staphylococcus aureus [4]) of 8 µg/mL (≈ 14.8 µM), an IC50 (Ribosome) of 23.77 µg/mL and an IC50 [5] of 5 µg/mL. It also gave an IC50 (Bacterial 70S ribosome) of 111 nM, an MIC (Escherichia coli [6]) of 16 µg/mL (≈ 29.7 µM) and an MIC (Staphylococcus aureus [7]) of 8 µg/mL (≈ 14.8 µM). The MIC (Escherichia coli [8]) was 8 µg/mL (≈ 14.8 µM), the IC50 [9] was 128.89 µg/mL and the MIC (Staphylococcus aureus [10]) was 8 µg/mL (≈ 14.8 µM). The MIC (Escherichia coli [11]) was 8 µg/mL (≈ 14.8 µM), the IC50 (80S Ribosome) was 108000 nM and the IC50 [12] was 31.21 µg/mL. It also gave an MIC (Escherichia coli [13]) of 4 µg/mL (≈ 7.41 µM).
